SMILES strings stand for the structures. Where a name gives a salt, the structure may show the parent alone.

T1 sequence (Q9UBS5 1-844 isoform Q9UBS5-2): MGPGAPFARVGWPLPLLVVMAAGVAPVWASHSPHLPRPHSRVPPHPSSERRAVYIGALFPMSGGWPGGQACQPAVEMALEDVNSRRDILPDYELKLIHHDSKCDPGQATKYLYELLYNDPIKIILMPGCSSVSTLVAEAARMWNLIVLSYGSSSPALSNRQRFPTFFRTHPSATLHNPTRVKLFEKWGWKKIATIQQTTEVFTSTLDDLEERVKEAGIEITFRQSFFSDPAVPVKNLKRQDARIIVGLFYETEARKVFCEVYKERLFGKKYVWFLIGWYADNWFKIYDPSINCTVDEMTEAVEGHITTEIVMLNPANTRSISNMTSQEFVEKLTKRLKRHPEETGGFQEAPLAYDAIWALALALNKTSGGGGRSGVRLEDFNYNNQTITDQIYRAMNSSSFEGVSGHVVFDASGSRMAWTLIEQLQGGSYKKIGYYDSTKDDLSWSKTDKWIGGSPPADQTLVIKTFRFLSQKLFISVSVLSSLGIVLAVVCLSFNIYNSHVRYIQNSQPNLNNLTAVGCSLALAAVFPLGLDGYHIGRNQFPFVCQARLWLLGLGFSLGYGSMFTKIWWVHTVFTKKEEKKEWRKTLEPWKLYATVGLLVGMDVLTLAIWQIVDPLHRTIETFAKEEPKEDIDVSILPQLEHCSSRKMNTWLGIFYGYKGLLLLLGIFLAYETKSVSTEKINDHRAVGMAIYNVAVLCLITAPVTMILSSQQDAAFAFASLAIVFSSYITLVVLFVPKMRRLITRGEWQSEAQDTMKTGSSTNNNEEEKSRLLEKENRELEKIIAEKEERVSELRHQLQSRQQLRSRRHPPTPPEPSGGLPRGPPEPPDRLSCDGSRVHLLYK
T1 sequence (O88871 41-940): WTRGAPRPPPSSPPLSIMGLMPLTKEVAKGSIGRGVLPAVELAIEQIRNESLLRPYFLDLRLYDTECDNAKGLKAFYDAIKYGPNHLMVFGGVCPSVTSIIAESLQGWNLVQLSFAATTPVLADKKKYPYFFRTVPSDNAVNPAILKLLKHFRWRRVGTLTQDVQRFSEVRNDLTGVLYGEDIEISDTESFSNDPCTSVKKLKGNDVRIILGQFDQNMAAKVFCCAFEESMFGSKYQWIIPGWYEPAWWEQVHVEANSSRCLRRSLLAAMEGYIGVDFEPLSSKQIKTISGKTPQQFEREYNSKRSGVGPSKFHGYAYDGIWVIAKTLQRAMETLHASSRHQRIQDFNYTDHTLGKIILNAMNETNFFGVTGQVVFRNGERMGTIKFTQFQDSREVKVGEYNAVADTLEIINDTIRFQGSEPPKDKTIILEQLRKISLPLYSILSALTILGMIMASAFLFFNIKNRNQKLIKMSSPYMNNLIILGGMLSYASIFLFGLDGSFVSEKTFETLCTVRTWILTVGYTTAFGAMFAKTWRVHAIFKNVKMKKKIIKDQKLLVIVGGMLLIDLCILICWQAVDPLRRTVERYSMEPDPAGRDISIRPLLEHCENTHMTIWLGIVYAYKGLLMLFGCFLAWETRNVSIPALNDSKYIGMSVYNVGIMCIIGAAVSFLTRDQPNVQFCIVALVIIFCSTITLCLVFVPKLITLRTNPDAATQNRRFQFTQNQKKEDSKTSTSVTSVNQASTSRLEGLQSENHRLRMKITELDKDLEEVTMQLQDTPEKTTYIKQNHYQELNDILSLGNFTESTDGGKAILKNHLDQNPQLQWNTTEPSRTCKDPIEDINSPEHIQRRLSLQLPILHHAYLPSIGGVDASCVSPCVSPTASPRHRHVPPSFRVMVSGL

System in one data set: not given
Assay: not given
Conditions: not given
For `CC(=O)Nc1ccc(-c2cnc(C)nc2NC2CCCC2)cc1` [Example 46, N-{4-[4-(cyclopentylamino)-2-methylpyrimidin-5-yl]phenyl}acetamide], the melting point – broadly, the temperature of the solid-liquid transition – is 203 to 210 °C.
`C#Cc1nc(C)nc(NC2CCCC2)c1-c1ccc(C(F)(F)F)cc1` [Example 50, N-cyclopentyl-6-ethynyl-2-methyl-5-[4-(trifluoromethyl)phenyl]pyrimidin-4-amine] had a melting point of 159 to 162 °C.
For `Cc1ncc(-c2ccc3nonc3c2)c(NC2CCCC2)n1` [Example 49, 5-(2,1,3-benzoxadiazol-5-yl)-N-cyclopentyl-2-methylpyrimidin-4-amine], the melting point lay within 165 to 167 °C.
In turn, `Cc1ncc(-c2ccc(C(F)(F)F)cc2Cl)c(NC2CCCC2)n1` [Example 45, 5-[2-chloro-4-(trifluoromethyl)phenyl]-N-cyclopentyl-2-methylpyrimidin-4-amine] yielded a melting point of 120 to 132 °C.
`Cc1ncc2c3ccc(C(F)(F)F)cc3c(=O)n(C3CCCC3)c2n1` [Example 53, 5-cyclopentyl-3-methyl-8-(trifluoromethyl)pyrimido[4,5-c]-isoquinolin-6(5H)-one] yielded a melting point of 137 to 141 °C.
Same read-out and setting: the same measure for `Cc1ncc(-c2cnc(C(F)(F)F)nc2)c(NC2CCCC2)n1` (as salt: hydrochloride) [Example 54, N-cyclopentyl-2-methyl-2′-(trifluoromethyl)-5,5′-bipyrimidin-4-amine hydrochloride]: 249 to 254 °C; for `CCc1nc(NC2CCCC2)c(-c2ccccc2)c(NC2CCCC2)n1` [Example 65, N,N′-Dicyclopentyl-2-ethyl-5-phenyl-pyrimidine-4,6-diamine]: 70 to 71 °C; for `Cc1ncc(-c2ccc(C(F)(F)F)cn2)c(NC2CCCC2)n1` [Example 47, Cyclopentyl-[2-methyl-5-(5-trifluoromethyl-pyridin-2-yl)-pyrimidin-4-yl]-amine]: 130 to 133 °C.
Same read-out and setting: the same measure for `Cc1ncc(-c2ccc(F)cc2)c(NC2CCCC2)n1` [Example 39, N-cyclopentyl-5-(4-fluorophenyl)-2-methylpyrimidin-4-amine]: 83 to 86 °C; for `Cc1ncc(-c2ccc(C(F)(F)F)cc2)c(NC2CCCCNC2=O)n1` (centres unmarked) [Example 62, 3-[2-Methyl-5-(4-trifluoromethyl-phenyl)-pyrimidin-4-ylamino]-azepan-2-one]: 191 to 196 °C; for `Cc1cccc(-c2c(NC3CCCC3)nc(C)nc2NC2CCCC2)c1` [Example 22, 5-(3-methylphenyl)-N,N′-dicyclopentyl-2-methylpyrimidine-4,6-diamine]: 95 to 98 °C.
The same measure, in the same setting: the same measure for `Cc1ccc(-c2c(NC3CCCC3)nc(C)nc2NC2CCCC2)cc1` [Example 20, 5-(4-methylphenyl)-N,N′-dicyclopentyl-2-methylpyrimidine-4,6-diamine]: 115 to 128 °C; for `Cc1ncc(-c2ccc(Cl)cc2)c(NC2CCCC2)n1`: 103 to 106 °C.
`COc1ccc(-c2cnc(C)nc2NC2CCCC2)cc1OC` [Example 31, N-cyclopentyl-5-(3,4-dimethoxyphenyl)-2-methylpyrimidin-4-amine] registered a melting point of 143 to 145 °C.
Take `Cc1ncc(-c2cccc(C(F)(F)F)c2)c(NC2CCCC2)n1` [Example 29, N-cyclopentyl-2-methyl-5-[3-(trifluoromethyl)phenyl]pyrimidin-4-amine]: the melting point lay within 105 to 108 °C.
Same read-out and setting: for `Cc1ncc(-c2ccc(C(=O)O)cc2)c(NC2CCCC2)n1` [Example 27, 4-[4-(cyclopentylamino)-2-methylpyrimidin-5-yl]benzoic acid] the value was 252 to 255 °C; for `Cc1ncc(-c2cc(C(F)(F)F)cc(C(F)(F)F)c2)c(NC2CCCC2)n1` [Example 30, 5-[3,5-bis(trifluoromethyl)phenyl]-N-cyclopentyl-2-methylpyrimidin-4-amine], 124 to 126 °C; for `Cc1ncc2c3ccc(C(F)(F)F)cc3n(C3CCCC3)c2n1` [Example 48, 9-cyclopentyl-2-methyl-7-(trifluoromethyl)-9H-pyrimido[4,5-b]indole], 133 to 134 °C.
Same read-out and setting: for `Cc1ncc(-c2ccccc2C(F)(F)F)c(NC2CCCC2)n1` [Example 44, N-cyclopentyl-2-methyl-5-[2-(trifluoromethyl)phenyl]pyrimidin-4-amine] the value was 80 to 84 °C; for `Cc1ncc(-c2ccc(C#N)cc2)c(NC2CCCC2)n1` [Example 36, 4-[4-(cyclopentylamino)-2-methylpyrimidin-5-yl]benzonitrile], 176 to 180 °C; for `Cc1ncc(C#Cc2ccc(C(F)(F)F)cc2)c(NC2CCCC2)n1` [Example 55, N-cyclopentyl-2-methyl-5-{[4-(trifluoromethyl)phenyl]ethynyl}-pyrimidin-4-amine], 90 to 93 °C.
The compound `Cc1ncc(-c2ccc(P(=O)(O)O)cc2)c(NC2CCCC2)n1` [Example 51, {4-[4-(cyclopentylamino)-2-methylpyrimidin-5-yl]phenyl}-phosphonic acid] showed a melting point of 254 to 259 °C.
Regarding `Cc1ncc(-c2ccc(C(F)(F)F)cc2C(F)(F)F)c(NC2CCCC2)n1` [Example 41, 5-[2,4-bis(trifluoromethyl)phenyl]-N-cyclopentyl-2-methylpyrimidin-4-amine], the melting point lay in the range of 128 to 132 °C.
`Cc1ncc(-c2ccc(C(N)=O)cc2)c(NC2CCCC2)n1` [Example 32, 4-[4-(cyclopentylamino)-2-methylpyrimidin-5-yl]benzamide] showed a melting point of 226 to 228 °C.
Regarding `Cc1ncc(-c2ccc([N+](=O)[O-])cc2)c(NC2CCCC2)n1` [Example 33, N-cyclopentyl-2-methyl-5-(4-nitrophenyl)pyrimidin-4-amine], the melting point lay in the range of 185 to 188 °C.

Another data set has as its target T1, human GABA-B1b/rat GABA-B2 (UniProt O88871+Q9UBS5).
T1 construct: expressed in transfected cells; host or cells: CHO-K1 cell line (membranes)
Put plainly: GTPγ[35S] binding, enhancement of GABA-induced binding. To be noted: 1 μM of GABA, 2.5 μM of Cpd; relative to basal activity. It counts as biochemical. The protocol:
In the functional GTP(γ)^35S assay (Lorenzen A, Fuss M, Vogt H, Schwabe U. Measurement of guanine nucleotide-binding protein activation by A1 adenosine receptor agonists in bovine brain membranes. Stimulation of guanosine-5′-O-(3-[^35S]thio)triphosphate binding. Mol. Pharmacol. 1993; 44:115-123) the agents of the invention enhance the GABA-induced GTP( ? )^35S binding at recombinant GABAB receptors with EC50 values of about 0.1 μM to about 50 μM.
GTPγ[^35S] binding. The assay mixtures contained 10 μg f membranes from a human GABA-B1b/rat GABA-B2 expressing CHO-K1 cell line in 50 mM Tris-HCl buffer, pH 7.7; 10 mM MgCl2; 1.8 mM CaCl2; 100 mM NaCl 30 μM guanosine 5′-diphosphate (30 μM; Sigma), 0.2 nM [^35S]GTP(γ)S, and test compounds (Urwyler et al, 2001). 96-well Packard Pico-plates (300 μl volume) were used. Non-specific binding was measured in the presence of unlabelled GTP(γ)S (10 μM, Sigma). The reagents were incubated for 40 min at room temperature and subsequently filtered (Packard unifilter-GF/C). After two washes with assay buffer as above the plates were dried for one hour at 50° C., 50 μl of scintillation solution (Microscint) was added and the radioactivity counted. For data analysis, non-specific binding was subtracted from all the other values; the compound effects were expressed relative to basal activity. Prism 3.0 software (Graph Pad software, San Diego, Calif.) was used for all data calculations. (Urwyler S, Mosbacher J, Lingenhoehl K, Heid J, Hofstetter K, Froestl W, Bettler B, Kaupmann K. Mol. Pharmacol. 2001, 60:963-71).
On the technique in general: GTPγS resists hydrolysis and so accumulates on activated G proteins.
As for `Cc1ncc(-c2ccc(C(F)(F)F)cc2)c(NC2CCCCNC2=O)n1` (centres unmarked) [Example 62, 3-[2-Methyl-5-(4-trifluoromethyl-phenyl)-pyrimidin-4-ylamino]-azepan-2-one], the “Biological activity (%)” value was 77%.

Staying with this data set, now noted: 1 μM of GABA, 25 μM of Cpd; relative to basal activity.
On to `Cc1ncc(-c2ccc(C(F)(F)F)cc2)c(NC2CCCCNC2=O)n1` (centres unmarked) [Example 62, 3-[2-Methyl-5-(4-trifluoromethyl-phenyl)-pyrimidin-4-ylamino]-azepan-2-one], for which the “Biological activity (%)” value is 129%.

The data set is the same for the next values; noted with them: 20 μM of GABA, 2.5 μM of Cpd; relative to basal activity.
Turning to `Cc1ncc(-c2ccc(C(F)(F)F)cc2)c(NC2CCCCNC2=O)n1` (centres unmarked) [Example 62, 3-[2-Methyl-5-(4-trifluoromethyl-phenyl)-pyrimidin-4-ylamino]-azepan-2-one], the “Biological activity (%)” value stood at 159%.

Staying with this data set, now noted: 20 μM of GABA, 25 μM of Cpd; relative to basal activity.
For the compound `Cc1ncc(-c2ccc(C(F)(F)F)cc2)c(NC2CCCCNC2=O)n1` (centres unmarked) [Example 62, 3-[2-Methyl-5-(4-trifluoromethyl-phenyl)-pyrimidin-4-ylamino]-azepan-2-one], the “Biological activity (%)” value amounted to 192%.
